The values that follow come from PMC11252457 (Acta Pharmaceutica Sinica. B, 2024).

The test system of one series is WT HIV-1 (IIIB). As to the kind of experiment: microbe, parasite or virus in culture. The format is cell-based. As to conditions: for EC50: Human immunodeficiency virus 1, IIIB, MT4, read-out: EC50 IIIB.
In series [1] the test system is HIV-1 RES056 (K103N/Y181C). As to the kind of experiment: microbe, parasite or virus in culture. The settings on record: for EC50: Human immunodeficiency virus 1, MT4, read-out: EC50 RES056. The class given is cell-based.
Series [2] has as its system HIV-1 mutant strain L100I. As to the kind of experiment: microbe, parasite or virus in culture. The format is cell-based. The settings on record: Human immunodeficiency virus 1, MT4, read-out: EC50 L100I.
Series [3] concerns HIV-1 mutant strain K103N. As to the kind of experiment: microbe, parasite or virus in culture. As to conditions: for EC50: Human immunodeficiency virus 1, MT4, read-out: EC50 K103N. The class given is cell-based.
Series [4] deals with HIV-1 mutant strain Y181C. As to the kind of experiment: microbe, parasite or virus in culture. As to conditions: for EC50: Human immunodeficiency virus 1, MT4, read-out: EC50 Y181C. The class given is cell-based.
The subject of series [5] is HIV-1 mutant strain Y188L. As to the kind of experiment: microbe, parasite or virus in culture. The format is cell-based. As to conditions: for EC50: Human immunodeficiency virus 1, MT4, read-out: EC50 Y188L.
In series [6] the test system is HIV-1 mutant strain E138K. As to the kind of experiment: microbe, parasite or virus in culture. The format is cell-based. As to conditions: for EC50: Human immunodeficiency virus 1, MT4, read-out: EC50 E138K.
Series [7] has as its system HIV-1 double mutant strain F227L/V106A. As to the kind of experiment: microbe, parasite or virus in culture. The format is cell-based. As to conditions: for EC50: Human immunodeficiency virus 1, MT4, read-out: EC50 F227L/V106A.
A further series has as its target recombinant WT HIV-1 RT (Human immunodeficiency virus type 1 group M subtype B, UniProt P03366). As to the kind of experiment: HIV-1 RT inhibition assay. The class given is biochemical.
A further series is described as follows: Aqueous solubility. The class given is physicochemical.
The nature of series [8]: Cytotoxicity in mock-infected MT-4 cells. The settings on record: human.
For series [9] the following is noted: cited from earlier work.

In general, IC50 refers to the concentration that gives 50% inhibition. The Aqueous solubility is the concentration that dissolves in the medium under given conditions. Usually CC50 stands for the concentration giving 50% cytotoxicity.

Where “and” joins values, the source holds several entries; their conditions need not be identical. Equal entries are not always repeated. Where two headings read alike, the source gives them in different places.

As for `Cc1cc(/C=C/C#N)cc(C)c1Oc1nc(NC2CCN(Cc3ccc(P(C)(C)=O)cc3)CC2)nc2ccsc12` [15a, (E)-3-(4-((2-((1-(4-(Dimethylphosphoryl)benzyl)piperidin-4-yl)amino)thieno[3,2-d]pyrimidin-4-yl)oxy)-3,5-dimethylphenyl)acrylonitrile], in the series with WT HIV-1 (IIIB), the “Fold more effective than ETR, WT” value is recorded as 1.6 fold and the EC50 is 1.75 ± 0.64 nM. Besides, in [1], the “Fold more effective than ETR, RES056” value stood at 5.3 fold and the EC50 was 15.8 ± 2.62 nM. For the same compound, the EC50 in series [2] stood at 2.84 ± 0.09 nM. Also, in series [3], the “Fold more effective than ETR, K103N” value was 2.4 fold and ~2.39 fold; the EC50 is 1.27 ± 0.68 nM. Besides, in [4], the “Fold more effective than ETR, Y181C” value is 3.3 fold and ~3.31 fold; the EC50 turned out to be 5.38 ± 1.61 nM. In [5], the “Fold higher activity than RPV, Y188L” value is on record as “about 9.97 fold”; the “Fold more effective than ETR, Y188L” value is around 2.78 fold; the EC50 came out at 7.96 ± 3.89 nM. In series [6], the “Fold more effective than ETR, E138K” value is reported as around 2.45 fold and the EC50 is 4.28 ± 1.04 nM. Also, in series [7], the “Fold higher activity than RPV, F227L/V106A” value is around 21.7 fold; the “Fold more effective than ETR, F227L/V106A” value was 4.8 fold and ~4.84 fold; the EC50 worked out at 3.76 ± 0.46 nM. Besides, the IC50 at recombinant WT HIV-1 RT was 340 ± 90 nM. In addition, in the series “Aqueous solubility” (pH = 2.0), the Aqueous solubility came to 283 µg/mL. Moreover, the Aqueous solubility in the series “Aqueous solubility” (pH = 7.4) amounted to 27.6 µg/mL. Also, in [8], the CC50 at 5 days was 117000 ± 23900 nM.

For `Cc1cc(C#N)cc(C)c1Oc1nc(Nc2ccc(C#N)cc2)nc(N)c1Br` [ETR, etravirine, reference compound], the EC50 in the series on WT HIV-1 (IIIB) is 2.81 ± 1.08 nM; in series [1], 83.3 ± 21.1 nM; in [2], 8.39 ± 3.4 nM; in series [3], 3.04 ± 0.9 nM; in series [4], 17.8 ± 5.74 nM; in series [5], 22.1 ± 6.33 nM. In addition, the EC50 in series [6] worked out at 10.5 ± 2.49 nM; in series [7], 18.2 ± 12.4 nM. In addition, the Aqueous solubility is 127 µg/mL in series [9] (pH = 2.0), <<1 μg/mL in [9] (pH = 7.0) and below 1 µg/mL in series [9] (pH = 7.4). Also, the 50% cytotoxic concentration (CC50) at 5 days in series [8] was above 4590 nM.
